Data on one substance can be found in patent US9475028B2 (priority 2006, dated 2016).

This assay concerns A549 (Lung Mesothelial Carcinoma) cells. Format: cell-based.

“Also recorded” adds a separate entry of the source.

On to C60(OH)n (n˜1-48) [PHF], for which the “observed damage to cells” value is recorded as “restricted to the top layer of cells; also recorded: damage of multiple layers of cells”.
